The test system of the data set is rodent carcinogenicity bioassays, tumor incidence. The experiment in a line: CCRIS carcinogenicity studies. Put shortly: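 NCI-built, expert-reviewed records of carcinogenicity and related test outcomes (mutagenicity, tumor promotion/inhibition) compiled from published and report sources, historical span 1985-2011, not updated.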

Active and inactive are the calls of the source. No rule for the calls is given here.

As for `O=[N+]([O-])c1c(Cl)c(Cl)c(Cl)c(Cl)c1Cl`, the carcinogen call (Species: MOUSE, Route: DERMAL, Tumor Site: Type of Lesion: INTEGUMENTARY SYSTEM (SKIN)) is “active; positive”; the carcinogen call (Species: MOUSE, Route: ORAL, Tumor Site: Type of Lesion: LIVER) was “active; positive”; the carcinogen call (Species: MOUSE, Strain/Sex: B6C3F1/FEMALE, Route: ORAL, Dose: 0, 4093, 8187 PPM IN DIET, TWA, Dose: 0, 4093, 8187 PPM IN DIET, TWA) is “inactive; negative”; the carcinogen call (Species: MOUSE, Strain/Sex: B6C3F1/MALE, Route: ORAL, Dose: 0, 2500, 5000 PPM IN DIET FOR 103 WK (STUDY DURATION = 104 WK), Dose: 0, 2500, 5000 PPM IN DIET FOR 103 WK (STUDY DURATION = 104 WK)) is “inactive; negative”; the carcinogen call (Species: MOUSE, Strain/Sex: B6C3F1/MALE, Route: ORAL, Dose: 0, 2606, 5213 PPM IN DIET, TWA, Dose: 0, 2606, 5213 PPM IN DIET, TWA) was “inactive; negative”; the carcinogen call (Species: RAT, Strain/Sex: OSBORNE-MENDEL/FEMALE, Route: ORAL, Dose: 0, 7875, 14635 PPM IN DIET, TWA, Dose: 0, 7875, 14635 PPM IN DIET, TWA) is “inactive; negative”. Moreover, the carcinogen call (Species: RAT, Strain/Sex: OSBORNE-MENDEL/MALE, Route: ORAL, Dose: 0, 5417, 10064 PPM IN DIET, TWA, Dose: 0, 5417, 10064 PPM IN DIET, TWA) was “inactive; negative”.

On to `Nc1ccccc1-c1ccccc1`, for which the carcinogen call (Species: MOUSE, Strain/Sex: B6C3F1/FEMALE, Route: ORAL, Dose: 0, 1000, 3000 PPM IN DIET FOR 103 WK (STUDY DURATION: 103 WK), Dose: 0, 1000, 3000 PPM IN DIET FOR 103 WK (STUDY DURATION: 103 WK), Tumor Site: Type of Lesion: BLOOD VESSELS: HEMANGIOMA, HEMANGIOSARCOMA) was “active; positive”; the carcinogen call (Species: MOUSE, Strain/Sex: B6C3F1/MALE, Route: ORAL, Dose: 0, 1000, 3000 PPM IN DIET FOR 103 WK (STUDY DURATION: 103 WK), Dose: 0, 1000, 3000 PPM IN DIET FOR 103 WK (STUDY DURATION: 103 WK), Tumor Site: Type of Lesion: SPLEEN: HEMANGIOSARCOMA) is on record as “equivocal”; the carcinogen call (Species: RAT, Strain/Sex: F344/FEMALE, Route: ORAL, Dose: 0, 1000, 3000 PPM IN DIET FOR 103 WK (STUDY DURATION: 103 WK), Dose: 0, 1000, 3000 PPM IN DIET FOR 103 WK (STUDY DURATION: 103 WK)) was “inactive; negative”; the carcinogen call (Species: RAT, Strain/Sex: F344/MALE, Route: ORAL, Dose: 0, 1000, 3000 PPM IN DIET FOR 103 WK (STUDY DURATION: 103 WK), Dose: 0, 1000, 3000 PPM IN DIET FOR 103 WK (STUDY DURATION: 103 WK)) was “inactive; negative”.

`CCCOC(=O)c1cc(O)c(O)c(O)c1`: the carcinogen call is “inactive; negative” (Species: MOUSE, Strain/Sex: B6C3F1/FEMALE, Route: ORAL, Dose: 0, 6000, 12000 PPM IN DIET FOR 103 WK (STUDY DURATION: 103 WK), Dose: 0, 6000, 12000 PPM IN DIET FOR 103 WK (STUDY DURATION: 103 WK)); “equivocal” (Species: MOUSE, Strain/Sex: B6C3F1/MALE, Route: ORAL, Dose: 0, 6000, 12000 PPM IN DIET FOR 103 WK (STUDY DURATION: 103 WK), Dose: 0, 6000, 12000 PPM IN DIET FOR 103 WK (STUDY DURATION: 103 WK), Tumor Site: Type of Lesion: HEMATOPOIETIC SYSTEM: MALIGNANT LYMPHOMA); “inactive; negative” (Species: RAT, Strain/Sex: F344/FEMALE, Route: ORAL, Dose: 0, 6000, 12000 PPM IN DIET FOR 103 WK (STUDY DURATION: 103 WK), Dose: 0, 6000, 12000 PPM IN DIET FOR 103 WK (STUDY DURATION: 103 WK)); “equivocal” (Species: RAT, Strain/Sex: F344/MALE, Route: ORAL, Dose: 0, 6000, 12000 PPM IN DIET FOR 103 WK (STUDY DURATION: 103 WK), Dose: 0, 6000, 12000 PPM IN DIET FOR 103 WK (STUDY DURATION: 103 WK), Tumor Site: Type of Lesion: PREPUTIAL GLAND: CARCINOMA OR ADENOMA OR ADENOCARCINOMA, PANCREAS: ISLET CELL ADENOMA OR CARCINOMA, ADRENAL GLAND: PHEOC, Tumor Site: Type of Lesion: PREPUTIAL GLAND: CARCINOMA OR ADENOMA OR ADENOCARCINOMA, PANCREAS: ISLET CELL ADENOMA OR CARCINOMA, ADRENAL GLAND: PHEOC).
